Active and inactive are the calls of the source. No cut-off for these calls is given here.
What was measured:
RAW264.7 [1] = test: Cytotoxicity against mouse RAW264.7 cells assessed as reduction in cell viability at 2.5 to 20 uM incubated for 24 hrs by CCK-8 assay; format: toxicity, cell-based; settings: raw264.7, 24 h, dose 2.5-20 µM
RAW264.7 [2] = test: Antiinflammatory activity in LPS-induced mouse RAW264.7 cells assessed as inhibition of TNFalpha production at 5 to 20 uM pretreated for 1 hr followed by LPS stimulation and measured after 3 hrs by ELISA; format: functional, cell-based; settings: dose 5-20 µM, time 4.0 hrs
RAW264.7 [3] = test: Antiinflammatory activity in LPS-induced mouse RAW264.7 cells assessed as inhibition of IL-6 production pretreated for 1 hr followed by LPS stimulation and measured after 3 hrs by ELISA; format: functional, cell-based; settings: dose 2.5-20 µM, time 4.0 hrs
[4] = target: T1, NF-kappa-B inhibitor alpha (Mus musculus) (UniProt Q9Z1E3); test: Inhibition of IkappaBalpha phosphorylation at Ser32 residue in LPS-induced mouse RAW264.7 cells at 5 uM pretreated for 2 hrs followed by LPS stimulation and measured after 25 mins by Western blot analysis; format: cell-based; settings: time 145.0 min
T1 sequence (whole entry): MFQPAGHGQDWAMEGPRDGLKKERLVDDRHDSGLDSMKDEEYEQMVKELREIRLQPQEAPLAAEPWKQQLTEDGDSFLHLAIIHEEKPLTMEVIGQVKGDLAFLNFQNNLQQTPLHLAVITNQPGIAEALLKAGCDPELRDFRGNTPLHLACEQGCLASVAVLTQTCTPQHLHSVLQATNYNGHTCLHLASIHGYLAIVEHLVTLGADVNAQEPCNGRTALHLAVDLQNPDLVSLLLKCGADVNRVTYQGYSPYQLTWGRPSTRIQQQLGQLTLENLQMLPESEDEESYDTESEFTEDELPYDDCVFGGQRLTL

[5] = target: Transcription factor p65 (Mus musculus) (UniProt Q04207); test: Inhibition of NFkappaB p65 phosphorylation at Ser536 residue in LPS-induced mouse RAW264.7 cells assessed as downregulation of p-NFkappaB p65 protein expression at 5 uM pretreated for 2 hrs followed by LPS stimulation and measured after 25 mins by Western blot analysis; format: cell-based; settings: time 145.0 min
Sequence of Transcription factor p65 (Mus musculus) (Q04207 whole entry): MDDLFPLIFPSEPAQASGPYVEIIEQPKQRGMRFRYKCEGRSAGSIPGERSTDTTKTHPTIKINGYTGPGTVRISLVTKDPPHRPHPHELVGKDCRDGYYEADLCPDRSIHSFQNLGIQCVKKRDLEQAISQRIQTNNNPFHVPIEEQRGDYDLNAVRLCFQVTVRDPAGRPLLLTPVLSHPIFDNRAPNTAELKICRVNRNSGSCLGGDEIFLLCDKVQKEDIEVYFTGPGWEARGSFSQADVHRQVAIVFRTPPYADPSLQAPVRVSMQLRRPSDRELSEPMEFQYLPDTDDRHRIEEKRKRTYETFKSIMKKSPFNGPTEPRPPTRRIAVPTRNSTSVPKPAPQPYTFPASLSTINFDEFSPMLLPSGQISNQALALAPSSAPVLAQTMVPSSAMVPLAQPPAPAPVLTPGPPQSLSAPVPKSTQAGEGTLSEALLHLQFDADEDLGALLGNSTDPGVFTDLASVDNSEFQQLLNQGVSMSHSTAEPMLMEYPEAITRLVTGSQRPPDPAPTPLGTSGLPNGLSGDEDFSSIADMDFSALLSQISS

[6] = target: c-Jun N-terminal kinase (Mus musculus) (UniProt Q91Y86+Q9WTU6+Q61831); test: Inhibition of LPS-induced JNK phosphorylation in mouse RAW264.7 cells assessed as reduction in p-JNK protein expression at 2.5 to 5 uM pretreated for 2 hrs followed by LPS stimulation and measured after 25 mins by Western blot analysis; format: cell-based; settings: dose 2.5-5 µM, time 145.0 min
Sequence of c-Jun N-terminal kinase (Mus musculus) (Q61831 whole entry, looked up): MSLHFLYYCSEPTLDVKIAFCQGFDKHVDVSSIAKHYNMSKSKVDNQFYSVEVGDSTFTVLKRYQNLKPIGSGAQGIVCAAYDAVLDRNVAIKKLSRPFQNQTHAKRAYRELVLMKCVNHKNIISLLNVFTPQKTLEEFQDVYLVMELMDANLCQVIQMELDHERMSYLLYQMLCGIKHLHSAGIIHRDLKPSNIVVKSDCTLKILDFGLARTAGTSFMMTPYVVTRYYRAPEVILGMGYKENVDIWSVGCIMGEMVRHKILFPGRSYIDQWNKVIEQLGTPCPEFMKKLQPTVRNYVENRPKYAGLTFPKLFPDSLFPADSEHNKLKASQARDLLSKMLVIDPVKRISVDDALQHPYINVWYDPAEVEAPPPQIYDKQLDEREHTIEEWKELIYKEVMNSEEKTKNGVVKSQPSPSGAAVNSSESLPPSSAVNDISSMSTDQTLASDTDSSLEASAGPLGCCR
Sequence of c-Jun N-terminal kinase (Mus musculus) (Q91Y86 whole entry, looked up): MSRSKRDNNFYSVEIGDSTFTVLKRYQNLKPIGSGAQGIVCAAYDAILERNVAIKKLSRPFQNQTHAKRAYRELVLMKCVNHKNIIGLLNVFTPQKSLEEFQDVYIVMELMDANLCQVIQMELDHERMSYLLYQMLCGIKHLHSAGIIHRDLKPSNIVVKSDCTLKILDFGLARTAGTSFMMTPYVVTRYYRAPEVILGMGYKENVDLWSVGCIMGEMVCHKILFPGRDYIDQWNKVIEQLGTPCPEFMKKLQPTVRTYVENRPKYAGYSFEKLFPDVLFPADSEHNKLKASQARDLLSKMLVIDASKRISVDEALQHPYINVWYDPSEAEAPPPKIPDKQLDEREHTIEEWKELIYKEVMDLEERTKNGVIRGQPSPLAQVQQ
Sequence of c-Jun N-terminal kinase (Mus musculus) (Q9WTU6 whole entry, looked up): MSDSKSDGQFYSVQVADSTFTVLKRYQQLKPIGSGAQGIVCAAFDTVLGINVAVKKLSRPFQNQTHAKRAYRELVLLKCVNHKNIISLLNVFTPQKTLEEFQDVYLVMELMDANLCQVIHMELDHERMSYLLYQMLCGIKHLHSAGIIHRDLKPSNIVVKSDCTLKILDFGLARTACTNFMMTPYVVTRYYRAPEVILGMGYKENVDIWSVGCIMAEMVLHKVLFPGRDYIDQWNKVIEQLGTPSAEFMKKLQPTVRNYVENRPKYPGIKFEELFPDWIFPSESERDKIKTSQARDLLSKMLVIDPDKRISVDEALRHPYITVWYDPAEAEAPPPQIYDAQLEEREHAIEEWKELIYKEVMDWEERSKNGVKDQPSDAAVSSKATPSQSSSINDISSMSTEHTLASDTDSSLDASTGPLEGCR

RAW264.7 [7] = test: Effect on COX-2 protein expression in LPS-induced mouse RAW264.7 cells at 5 uM pretreated for 2 hrs followed by LPS stimulation and measured after 25 mins by Western blot analysis; format: functional, cell-based; settings: time 145.0 min
[8] = target: Mitogen-activated protein kinase 1 and 3 (ERK2 and ERK1) (Mus musculus) (UniProt P63085+Q63844); test: Inhibition of LPS-induced ERK1/2 phosphorylation in mouse RAW264.7 cells assessed as reduction in p-ERK1/2 protein expression at 2.5 to 5 uM pretreated for 2 hrs followed by LPS stimulation and measured after 25 mins by Western blot analysis; format: cell-based; settings: dose 2.5-5 µM, time 145.0 min
Sequence of Mitogen-activated protein kinase 1 and 3 (ERK2 and ERK1) (Mus musculus) (P63085 whole entry, looked up): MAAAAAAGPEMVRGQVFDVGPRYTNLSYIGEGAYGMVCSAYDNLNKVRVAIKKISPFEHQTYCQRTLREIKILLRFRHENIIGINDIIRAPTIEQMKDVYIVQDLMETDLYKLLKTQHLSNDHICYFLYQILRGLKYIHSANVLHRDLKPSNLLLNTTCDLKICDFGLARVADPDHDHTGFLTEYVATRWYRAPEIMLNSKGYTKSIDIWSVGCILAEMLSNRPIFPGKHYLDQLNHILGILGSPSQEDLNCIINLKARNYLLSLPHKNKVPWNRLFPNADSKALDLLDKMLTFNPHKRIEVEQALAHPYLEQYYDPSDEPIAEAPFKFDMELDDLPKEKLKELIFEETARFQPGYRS
Sequence of Mitogen-activated protein kinase 1 and 3 (ERK2 and ERK1) (Mus musculus) (Q63844 whole entry, looked up): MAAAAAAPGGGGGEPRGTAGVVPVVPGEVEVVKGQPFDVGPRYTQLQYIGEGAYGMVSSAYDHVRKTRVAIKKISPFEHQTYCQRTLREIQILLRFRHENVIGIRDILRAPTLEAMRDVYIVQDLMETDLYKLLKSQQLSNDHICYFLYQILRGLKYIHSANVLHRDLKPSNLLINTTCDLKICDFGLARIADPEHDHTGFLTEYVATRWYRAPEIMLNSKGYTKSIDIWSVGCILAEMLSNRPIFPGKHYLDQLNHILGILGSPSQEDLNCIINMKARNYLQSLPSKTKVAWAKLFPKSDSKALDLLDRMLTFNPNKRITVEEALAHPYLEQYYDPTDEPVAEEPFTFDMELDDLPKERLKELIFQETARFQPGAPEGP

RAW264.7 [9] = test: Inhibition of LPS-induced p38 phosphorylation in mouse RAW264.7 cells assessed as reduction in p-p38 protein expression at 2.5 to 5 uM pretreated for 2 hrs followed by LPS stimulation and measured after 25 mins by Western blot analysis; format: cell-based; settings: dose 2.5-5 µM, time 145.0 min

| Compound | Activity (RAW264.7 [1]) | Activity (RAW264.7 [2]) | Activity (RAW264.7 [3]) | inhibition [4] | inhibition [5] | inhibition [6] | Activity (RAW264.7 [7]) | inhibition [8] | inhibition (RAW264.7 [9]) |
| --- | --- | --- | --- | --- | --- | --- | --- | --- | --- |
| C[C@H]1CC[C@]2(C)[C@@H](C)OC(=O)C[C@]23c2c(O)ccc(O)c2C[C@]13C | Non-Toxic | – | – | – | – | – | – | – | – |
| CC1=CC(=O)[C@@H]2Oc3ccc(O)cc3C[C@]3(C)[C@@H](C)CC[C@@]1(C)[C@@H]23 | Non-Toxic | Active | Dose-Dependent Effect | – | – | – | – | – | – |
| C=C1[C@H](O)C[C@@H]2Oc3ccc(O)cc3C[C@]3(C)[C@@H](C)CC[C@@]1(C)[C@@H]23 | Non-Toxic | – | Dose-Dependent Effect | – | – | – | – | – | – |
| C[C@H]1CC[C@@]2(C)[C@]34CC(=O)C[C@]2(C)Oc2ccc(O)c(c23)C[C@]14C | Non-Toxic | Active | Dose-Dependent Effect | – | – | – | – | – | – |
| C[C@@H]1CC[C@@]2(C)OC(=O)[C@H]3Oc4ccc(O)cc4C[C@]1(C)[C@@H]32 | Non-Toxic | Active | Dose-Dependent Effect | inactive | Active | Active | inactive | Active | Active |
| CCOC1=CC(=O)C2=C(C1=O)[C@@H]1C[C@]3(C)C(C)=CCCC3=C(C)[C@]1(C)C2 | Non-Toxic | Active | – | – | – | – | – | – | – |

From ChEMBL document CHEMBL5357059, “Arenarialins A-F, Anti-inflammatory Meroterpenoids with Rearranged Skeletons from the Marine Sponge Dysidea arenaria” (J Nat Prod, 2024)
